Measured values published in DBAASP.
Values after ≈ are worked out from the molar mass of the structure shown. Each block holds one compound with its values, some of them ahead of it.

What was measured:
Assay in all cases: ≥ marks a high value that may be exact or a test limit, other limits are often not marked, values filed in µg/mL are converted to µM
[1] = test system: Staphylococcus aureus ATCC BAA-1556
[2] = test system: Klebsiella pneumoniae ATCC 13883
Bacillus subtilis = test system: Bacillus subtilis
[3] = test system: Salmonella enterica subsp. enterica serovar Typhimurium ATCC 14028
[4] = test system: Streptococcus pyogenes ATCC 19615
[5] = test system: Pseudomonas aeruginosa ATCC 27853
[6] = test system: Staphylococcus aureus ATCC 25923
[7] = test system: Enterococcus faecalis ATCC 29212
Escherichia coli = test system: Escherichia coli
[8] = test system: Escherichia coli ATCC 35218
[9] = test system: Pseudomonas aeruginosa ATCC 9027
[10] = test system: Bacillus cereus ATCC 11778
[11] = test system: Enterococcus faecalis NCTC 12697
[12] = test system: Staphylococcus aureus NCTC 10788
[13] = test system: Escherichia coli NCTC 10418
[14] = test system: Candida albicans NCYC 1467
[15] = test system: Staphylococcus aureus NCTC 12493
[16] = test system: Micrococcus luteus ATCC 4698
[17] = test system: Staphylococcus aureus ATCC 6538
[18] = test system: Escherichia coli DH5alpha
[19] = test system: Staphylococcus epidermidis ATCC 12228
[20] = test system: Staphylococcus aureus ATCC 29213
[21] = test system: Pseudomonas aeruginosa ATCC 15442
Bacillus cereus = test system: Bacillus cereus
Bacillus anthracis = test system: Bacillus anthracis
Staphylococcus aureus = test system: Staphylococcus aureus
[22] = test system: Staphylococcus aureus USA 100
[23] = test system: Streptococcus mutans UA159
[24] = test system: Staphylococcus aureus USA 300
[25] = test system: Candida albicans ATCC 90028

SMILES: CC(C)C[C@H](NC(=O)[C@H](CCCN=C(N)N)NC(=O)[C@H](CO)NC(=O)[C@H](Cc1cnc[nH]1)NC(=O)[C@@H](N)CCCN=C(N)N)C(=O)N[C@@H](CCC(N)=O)C(=O)N[C@@H](CCCN=C(N)N)C(=O)N[C@@H](CCC(=O)O)C(=O)N1CCC[C@H]1C(=O)N[C@@H](CCC(N)=O)C(=O)N[C@H](C(=O)N[C@@H](CCC(N)=O)C(=O)N[C@@H](Cc1c[nH]c2ccccc12)C(=O)N[C@@H](CC(C)C)C(=O)N[C@@H](CCC(=O)O)C(=O)N[C@@H](CCC(N)=O)C(=O)N[C@@H](CCC(N)=O)C(=O)N[C@H](C(=O)N[C@@H](C)C(=O)N[C@@H](CCCCN)C(=O)N[C@@H](CCCN=C(N)N)C(=O)N[C@@H](CCCN=C(N)N)C(=O)N[C@H](C(=O)N[C@@H](CCCCN)C(=O)N[C@@H](CCCN=C(N)N)C(=O)O)[C@@H](C)O)C(C)C)C(C)C [RHSRLQREPQVQWLEQQVAKRRTKR]
MIC [2]: ≥ 100 µM
MIC (Bacillus subtilis): ≥ 100 µM
MIC [3]: > 100 µM
MIC [4]: ≥ 100 µM
MIC [5]: > 100 µM
MIC [6]: > 100 µM
MIC [7]: > 100 µM
MIC (Escherichia coli): > 100 µM

SMILES: CC[C@H](C)[C@H](NC(=O)[C@H](CCC(=O)O)NC(=O)[C@H](CC(N)=O)NC(=O)[C@H](CC(C)C)NC(=O)[C@H](C)NC(=O)[C@H](C)NC(=O)[C@H](CCCCN)NC(=O)CNC(=O)[C@H](C)NC(=O)[C@H](CC(N)=O)NC(=O)[C@H](CCCCN)NC(=O)[C@H](CC(C)C)NC(=O)[C@@H](NC(=O)[C@H](CCC(=O)O)NC(=O)[C@H](CCCCN)NC(=O)[C@H](Cc1c[nH]c2ccccc12)NC(=O)[C@H](CC(C)C)NC(=O)[C@H](C)N)C(C)C)C(=O)N[C@@H](CC(N)=O)C(=O)N[C@@H](CC(N)=O)C(=O)N[C@@H](CC(C)C)C(=O)N[C@H](C(=O)N[C@@H](CCC(N)=O)C(N)=O)C(C)C [ALWKEVLKNAGKAALNEINNLVQ]
MIC [11]: ≥ 32 µM
MIC [12]: ≥ 32 µM
MIC [5]: 64 µM (≈ 162 µg/mL)
MIC [13]: 16 µM (≈ 40.6 µg/mL)
MIC [14]: 16 µM (≈ 40.6 µg/mL)
MIC [15]: ≥ 512 µM

SMILES: CC[C@H](C)[C@H](NC(=O)[C@H](C)NC(=O)[C@@H](N)C(C)C)C(=O)N[C@@H](C)C(=O)N[C@@H](CC(C)C)C(=O)N[C@@H](CCCCN)C(=O)N[C@@H](C)C(=O)N[C@@H](C)C(=O)N[C@@H](C)C(=O)N[C@@H](Cc1ccc(O)cc1)C(=O)N[C@@H](Cc1cnc[nH]1)C(=O)N[C@H](C(=O)N[C@@H](Cc1cnc[nH]1)C(=O)N[C@@H](CCCCN)C(=O)N[C@@H](CCC(=O)O)C(=O)O)[C@@H](C)O [VAIALKAAAYHTHKE]
MIC [20]: 39.4 µM (≈ 64 µg/mL)
MIC [21]: ≥ 78.9 µM
MIC [7]: 78.9 µM (≈ 128 µg/mL)

SMILES: CC(C)C[C@H](NC(=O)CNC(=O)[C@H](Cc1ccccc1)NC(=O)[C@H](CC(C)C)NC(=O)[C@@H](N)Cc1ccccc1)C(=O)N[C@@H](C)C(=O)N[C@@H](CO)C(=O)N[C@@H](CCCCN)C(=O)N[C@H](C(=O)N[C@@H](Cc1ccccc1)C(=O)N1CCC[C@H]1C(=O)N[C@@H](C)C(=O)N[C@H](C(=O)N[C@@H](Cc1ccc(O)cc1)C(=O)N[C@@H](CS)C(=O)N[C@@H](CCCCN)C(=O)N[C@H](C(=O)N[C@H](C(=O)N[C@@H](CCCN=C(N)N)C(=O)N[C@@H](CCCCN)C(=O)O)[C@@H](C)O)C(C)C)C(C)C)C(C)C [FLFGLASKVFPAVYCKVTRK]
MIC (Bacillus cereus): ≥ 113 µM
MIC (Bacillus anthracis): ≥ 56.3 µM
MIC (Escherichia coli): 28.1 µM (≈ 64 µg/mL)
MIC (Staphylococcus aureus): 113 µM (≈ 256 µg/mL)

SMILES: C[C@H](N)C(=O)N[C@@H](CCCN=C(N)N)C(=O)N[C@@H](C)C(=O)N[C@@H](CCCN=C(N)N)C(N)=O [ARAR]
MIC [22]: ≥ 100 µM

SMILES: CC[C@H](C)[C@H](NC(=O)[C@H](CCCN=C(N)N)NC(=O)[C@H](C)NC(=O)[C@H](Cc1ccccc1)NC(=O)[C@H](Cc1ccccc1)NC(=O)[C@H](CCCCN)NC(=O)[C@H](CCCN=C(N)N)NC(=O)[C@H](CC(C)C)NC(=O)[C@@H](NC(=O)[C@H](CCCCN)NC(=O)[C@@H]1CCCN1C(=O)[C@H](CC(C)C)NC(=O)[C@@H](N)Cc1ccccc1)[C@@H](C)O)C(=O)N[C@@H](CCCN=C(N)N)C(=O)NCC(=O)NCC(=O)N[C@@H](CCCN=C(N)N)C(=O)N[C@@H](C)C(=O)N[C@@H](C)C(=O)N[C@H](C(=O)N[C@@H](CC(C)C)C(=O)N[C@@H](CC(N)=O)C(=O)N[C@@H](C)C(=O)O)C(C)C [FLPKTLRKFFARIRGGRAAVLNA]
MIC [23]: 8.48 µM (≈ 22.1 µg/mL)

SMILES: NCCCC[C@H](NC(=O)[C@H](Cc1cnc[nH]1)NC(=O)CN)C(=O)O [GHK]
MIC [24]: ≥ 100 µM
MIC [22]: ≥ 100 µM
MIC [25]: ≥ 100 µM
MIC [9]: > 100 µM

SMILES: C[C@@H](O)[C@H](N)C(=O)N[C@@H](CCCN=C(N)N)C(=O)N[C@H](C(=O)N[C@@H](CCCN=C(N)N)C(N)=O)[C@@H](C)O [TRTR]
MIC [22]: ≥ 100 µM

SMILES: CC[C@H](C)[C@H](NC(=O)[C@H](CC(C)C)NC(=O)[C@H](C)NC(=O)[C@@H]1CCCN1C(=O)[C@H](Cc1ccccc1)NC(=O)[C@@H](NC(=O)[C@H](CCCCN)NC(=O)[C@H](CO)NC(=O)[C@H](C)NC(=O)[C@@H](NC(=O)[C@H](CCCN=C(N)N)NC(=O)[C@H](Cc1ccccc1)NC(=O)[C@H](CC(C)C)NC(=O)[C@@H](N)Cc1ccccc1)C(C)C)C(C)C)C(=O)NCC(=O)N[C@@H](CCCCN)C(=O)N[C@@H](Cc1ccccc1)C(=O)N[C@@H](CCCCN)C(=O)N[C@@H](CCCCN)C(=O)N[C@@H](CCCCN)C(=O)O [FLFRVASKVFPALIGKFKKK]
MIC (Bacillus cereus): 6.88 µM (≈ 16 µg/mL)
MIC (Bacillus anthracis): 6.88 µM (≈ 16 µg/mL)
MIC (Escherichia coli): 27.5 µM (≈ 64 µg/mL)
MIC (Staphylococcus aureus): 6.88 µM (≈ 16 µg/mL)

Other lines, results leading:

MIC [1]: ≥ 100 µM
SMILES: CC(C)C[C@H](NC(=O)[C@H](Cc1c[nH]c2ccccc12)NC(=O)[C@H](CCCCN)NC(=O)[C@H](CC(C)C)NC(=O)[C@H](CC(C)C)NC(=O)[C@H](CCCCN)NC(=O)[C@@H](N)CCCCN)C(N)=O [KKLLKWL]

MIC [1]: 25 µM (≈ 37.1 µg/mL)
SMILES: CC(=O)N[C@@H](Cc1c[nH]c2ccccc12)C(=O)N[C@@H](Cc1c[nH]c2ccccc12)C(=O)N[C@@H](CC(C)C)C(=O)N[C@@H](Cc1c[nH]c2ccccc12)C(=O)N[C@@H](Cc1c[nH]c2ccccc12)C(=O)N[C@@H](CC(C)C)C(=O)N[C@@H](CCCN=C(N)N)C(=O)N[C@@H](Cc1c[nH]c2ccccc12)C(=O)N[C@@H](CC(C)C)C(N)=O [WWLWWLRWL]

MIC [8]: ≥ 50 µM
MIC [9]: > 50 µM
MIC [6]: > 50 µM
MIC [10]: ≥ 50 µM
SMILES: CC(C)C[C@H](NC(=O)[C@H](CC(C)C)NC(=O)[C@@H](NC(=O)[C@@H](N)CCCCN)[C@@H](C)O)C(=O)N[C@@H](CCCCN)C(=O)N[C@@H](CCCCN)C(=O)N[C@H](C(=O)N[C@@H](CC(C)C)C(=O)N[C@@H](CCCCN)C(=O)N[C@@H](C)C(=O)N[C@@H](C)C(=O)N[C@@H](C)C(N)=O)C(C)C [KTLLKKVLKAAA]

MIC [16]: ≥ 112 µM
MIC [17]: 209 µM (≈ 280 µg/mL)
MIC [18]: ≥ 299 µM
MIC [19]: > 299 µM
SMILES: CC(C)C[C@H](NC(=O)[C@H](CC(C)C)NC(=O)[C@H](CCCCN)NC(=O)[C@H](CO)NC(=O)[C@H](CC(C)C)NC(=O)[C@H](C)NC(=O)[C@H](CCCCN)NC(=O)[C@H](Cc1ccccc1)NC(=O)[C@H](C)NC(=O)[C@H](C)NC(=O)CNC(=O)[C@H](C)NC(=O)[C@@H](N)Cc1ccccc1)C(=O)O [FAGAAFKALSKLL]

MIC [1]: 3.12 µM (≈ 4.06 µg/mL)
SMILES: CC(C)C[C@H](NC(=O)[C@H](Cc1c[nH]c2ccccc12)NC(=O)[C@H](CCCN=C(N)N)NC(=O)[C@H](CC(C)C)NC(=O)[C@H](Cc1c[nH]c2ccccc12)NC(=O)[C@H](CC(C)C)NC(=O)[C@H](CC(C)C)NC(=O)[C@H](Cc1c[nH]c2ccccc12)NC(=O)[C@@H](N)CC(C)C)C(N)=O [LWLLWLRWL]
